According to ChEMBL document CHEMBL4507318, “Data for DCP probe BAY-985” (2021):

What was measured:
[1] = test system: Tyrosine-protein kinase ABL1 (Homo sapiens), P00519 [F317L]
[2] = target: Tyrosine-protein kinase ABL1 (Homo sapiens) (UniProt P00519)
[3] = target: Tyrosine-protein kinase Blk (Homo sapiens) (UniProt P51451)
[4] = target: Bone morphogenetic protein receptor type-1B (Homo sapiens) (UniProt O00238)
[5] = target: Bone morphogenetic protein receptor type-2 (Homo sapiens) (UniProt Q13873)
[6] = target: Calcium/calmodulin-dependent protein kinase type 1D (Homo sapiens) (UniProt Q8IU85)
[7] = target: Calcium/calmodulin-dependent protein kinase type II subunit beta (Homo sapiens) (UniProt Q13554)
[8] = target: Calcium/calmodulin-dependent protein kinase type II subunit delta (Homo sapiens) (UniProt Q13557)
[9] = target: Cyclin-dependent kinase 19 (Homo sapiens) (UniProt Q9BWU1)
[10] = target: Cyclin-dependent kinase-like 2 (Homo sapiens) (UniProt Q92772)
[11] = target: Serine/threonine-protein kinase Chk1 (Homo sapiens) (UniProt O14757)
[12] = target: Citron Rho-interacting kinase (Homo sapiens) (UniProt O14578)
[13] = target: Dual specificity protein kinase CLK2 (Homo sapiens) (UniProt P49760)
[14] = target: Casein kinase I isoform gamma-1 (Homo sapiens) (UniProt Q9HCP0)
[15] = target: Megakaryocyte-associated tyrosine-protein kinase (Homo sapiens) (UniProt P42679)
[16] = target: Serine/threonine-protein kinase DCLK3 (Homo sapiens) (UniProt Q9C098)
[17] = target: Mitogen-activated protein kinase kinase kinase 12 (Homo sapiens) (UniProt Q12852)
[18] = test system: Epidermal growth factor receptor (Homo sapiens), P00533 [UNDEFINED MUTATION]
[19] = target: Ephrin type-B receptor 2 (Homo sapiens) (UniProt P29323)
[20] = target: Ephrin type-B receptor 4 (Homo sapiens) (UniProt P54760)
[21] = target: Ephrin type-B receptor 6 (Homo sapiens) (UniProt O15197)
[22] = target: Serine/threonine-protein kinase/endoribonuclease IRE1 (Homo sapiens) (UniProt O75460)
[23] = target: Glycogen synthase kinase-3 beta (Homo sapiens) (UniProt P49841)
[24] = target: Tyrosine-protein kinase HCK (Homo sapiens) (UniProt P08631)
[25] = target: Inhibitor of nuclear factor kappa-B kinase subunit alpha (Homo sapiens) (UniProt O15111)
[26] = target: Insulin receptor-related protein (Homo sapiens) (UniProt P14616)
[27] = target: Tyrosine-protein kinase JAK3 (Homo sapiens) (UniProt P52333)
[28] = test system: Mast/stem cell growth factor receptor Kit (Homo sapiens), P10721 [V559D,V654A]
[29] = target: Serine/threonine-protein kinase MAK (Homo sapiens) (UniProt P20794)
[30] = target: Serine/threonine-protein kinase MARK1 (Homo sapiens) (UniProt Q9P0L2)
[31] = target: Mitogen-activated protein kinase kinase kinase 9 (Homo sapiens) (UniProt P80192)
[32] = target: Macrophage-stimulating protein receptor (Homo sapiens) (UniProt Q04912)
[33] = target: Mitogen-activated protein kinase kinase kinase 14 (Homo sapiens) (UniProt Q99558)
[34] = target: Serine/threonine-protein kinase NIM1 (Homo sapiens) (UniProt Q8IY84)
[35] = test system: Phosphatidylinositol 4,5-bisphosphate 3-kinase catalytic subunit alpha isoform (Homo sapiens), P42336 [C420R]
[36] = target: Serine/threonine-protein kinase PknB (Mycobacterium tuberculosis) (UniProt P9WI81)
[37] = target: Serine/threonine-protein kinase PLK3 (Homo sapiens) (UniProt Q9H4B4)
[38] = target: Protein kinase C epsilon type (Homo sapiens) (UniProt Q02156)
[39] = target: Serine/threonine-protein kinase D1 (Homo sapiens) (UniProt Q15139)
[40] = target: cGMP-dependent protein kinase 2 (Homo sapiens) (UniProt Q13237)
[41] = target: Rho-associated protein kinase 1 (Homo sapiens) (UniProt Q13464)
[42] = target: Ribosomal protein S6 kinase alpha-4 (Homo sapiens) (UniProt O75676)
[43] = target: TGF-beta receptor type-1 (Homo sapiens) (UniProt P36897)
[44] = target: D(3) dopamine receptor (Homo sapiens) (UniProt P35462); details: Compound concentration 10.0 uM
[45] = target: Alpha-2A adrenergic receptor (Homo sapiens) (UniProt P08913); details: Compound concentration 10.0 uM
[46] = Compound concentration 1000.0 nM
[47] = Compound concentration 100.0 nM

Chain of Inhibitor of nuclear factor kappa-B kinase subunit alpha (Homo sapiens) (O15111 whole entry): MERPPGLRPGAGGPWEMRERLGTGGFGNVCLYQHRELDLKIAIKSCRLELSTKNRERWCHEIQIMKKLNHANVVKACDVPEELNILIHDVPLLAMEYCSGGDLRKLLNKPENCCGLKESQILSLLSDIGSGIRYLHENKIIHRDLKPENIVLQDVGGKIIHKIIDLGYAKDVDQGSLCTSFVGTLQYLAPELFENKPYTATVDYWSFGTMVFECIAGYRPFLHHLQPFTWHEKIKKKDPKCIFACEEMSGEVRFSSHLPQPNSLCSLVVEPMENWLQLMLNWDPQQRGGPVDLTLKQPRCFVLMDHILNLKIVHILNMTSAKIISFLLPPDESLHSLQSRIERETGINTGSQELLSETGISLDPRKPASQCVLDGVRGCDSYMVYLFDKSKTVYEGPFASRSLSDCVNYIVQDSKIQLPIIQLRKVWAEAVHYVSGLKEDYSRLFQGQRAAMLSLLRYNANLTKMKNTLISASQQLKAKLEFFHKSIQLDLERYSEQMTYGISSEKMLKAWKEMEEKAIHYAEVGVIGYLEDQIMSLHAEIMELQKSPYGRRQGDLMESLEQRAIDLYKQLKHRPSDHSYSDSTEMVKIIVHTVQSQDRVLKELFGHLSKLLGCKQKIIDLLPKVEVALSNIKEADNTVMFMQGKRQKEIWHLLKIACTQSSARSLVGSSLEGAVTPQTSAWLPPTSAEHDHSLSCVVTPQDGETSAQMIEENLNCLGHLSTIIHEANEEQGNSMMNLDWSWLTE
Chain of Serine/threonine-protein kinase NIM1 (Homo sapiens) (Q8IY84 whole entry, canonical isoform): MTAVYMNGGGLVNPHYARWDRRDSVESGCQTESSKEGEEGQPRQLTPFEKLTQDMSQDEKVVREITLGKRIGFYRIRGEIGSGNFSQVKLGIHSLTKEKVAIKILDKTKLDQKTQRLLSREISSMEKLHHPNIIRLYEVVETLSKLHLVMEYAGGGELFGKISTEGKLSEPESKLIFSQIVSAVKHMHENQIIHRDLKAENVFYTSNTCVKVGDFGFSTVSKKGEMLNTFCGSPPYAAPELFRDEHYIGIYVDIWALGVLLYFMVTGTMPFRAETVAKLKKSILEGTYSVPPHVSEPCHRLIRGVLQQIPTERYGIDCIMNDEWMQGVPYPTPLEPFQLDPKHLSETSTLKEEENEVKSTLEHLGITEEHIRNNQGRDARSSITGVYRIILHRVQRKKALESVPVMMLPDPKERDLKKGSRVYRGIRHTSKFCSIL
Chain of Tyrosine-protein kinase HCK (Homo sapiens) (P08631 2-526 limits assumed): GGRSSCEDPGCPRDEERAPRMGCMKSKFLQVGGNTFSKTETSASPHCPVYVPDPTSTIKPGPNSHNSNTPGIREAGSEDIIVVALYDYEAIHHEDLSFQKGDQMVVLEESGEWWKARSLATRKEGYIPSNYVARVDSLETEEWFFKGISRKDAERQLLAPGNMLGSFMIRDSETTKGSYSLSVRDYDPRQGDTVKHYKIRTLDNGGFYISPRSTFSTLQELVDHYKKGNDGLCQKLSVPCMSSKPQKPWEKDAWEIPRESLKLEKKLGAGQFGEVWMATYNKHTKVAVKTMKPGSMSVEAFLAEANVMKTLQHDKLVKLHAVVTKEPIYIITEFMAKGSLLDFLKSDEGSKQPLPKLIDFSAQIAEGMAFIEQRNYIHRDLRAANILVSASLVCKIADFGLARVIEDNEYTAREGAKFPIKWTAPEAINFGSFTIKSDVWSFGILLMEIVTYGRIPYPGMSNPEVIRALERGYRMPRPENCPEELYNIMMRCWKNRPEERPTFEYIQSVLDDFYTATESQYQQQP
Chain of Serine/threonine-protein kinase MAK (Homo sapiens) (P20794 whole entry): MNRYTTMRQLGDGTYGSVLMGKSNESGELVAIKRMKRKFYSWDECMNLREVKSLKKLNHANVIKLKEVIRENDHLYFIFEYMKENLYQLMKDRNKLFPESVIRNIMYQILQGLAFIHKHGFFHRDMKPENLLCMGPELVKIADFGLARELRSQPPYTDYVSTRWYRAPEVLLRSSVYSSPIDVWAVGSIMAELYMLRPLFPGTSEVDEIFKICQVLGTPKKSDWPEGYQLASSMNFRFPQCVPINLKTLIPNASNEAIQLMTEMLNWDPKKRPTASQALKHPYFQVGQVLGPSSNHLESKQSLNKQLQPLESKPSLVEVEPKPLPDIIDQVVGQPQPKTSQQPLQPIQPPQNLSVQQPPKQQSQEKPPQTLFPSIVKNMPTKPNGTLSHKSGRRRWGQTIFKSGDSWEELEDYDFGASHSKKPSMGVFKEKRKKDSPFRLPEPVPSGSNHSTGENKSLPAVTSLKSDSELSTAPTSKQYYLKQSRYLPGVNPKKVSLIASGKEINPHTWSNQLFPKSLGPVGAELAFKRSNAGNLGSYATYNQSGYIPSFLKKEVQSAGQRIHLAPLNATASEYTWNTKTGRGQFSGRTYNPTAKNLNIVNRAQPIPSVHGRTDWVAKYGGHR
Chain of Glycogen synthase kinase-3 beta (Homo sapiens) (P49841 whole entry, looked up): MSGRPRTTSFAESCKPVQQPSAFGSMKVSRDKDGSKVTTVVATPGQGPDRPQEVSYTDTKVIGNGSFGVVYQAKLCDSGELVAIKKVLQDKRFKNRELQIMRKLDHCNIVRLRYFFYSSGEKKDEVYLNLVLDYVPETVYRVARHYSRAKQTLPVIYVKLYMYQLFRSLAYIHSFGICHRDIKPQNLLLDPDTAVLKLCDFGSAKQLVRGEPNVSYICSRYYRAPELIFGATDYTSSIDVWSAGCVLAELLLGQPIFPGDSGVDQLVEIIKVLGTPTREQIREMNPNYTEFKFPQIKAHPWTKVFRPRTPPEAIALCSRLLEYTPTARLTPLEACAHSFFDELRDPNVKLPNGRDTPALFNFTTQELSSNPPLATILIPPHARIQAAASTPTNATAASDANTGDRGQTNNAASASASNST
Chain of Serine/threonine-protein kinase DCLK3 (Homo sapiens) (Q9C098 whole entry): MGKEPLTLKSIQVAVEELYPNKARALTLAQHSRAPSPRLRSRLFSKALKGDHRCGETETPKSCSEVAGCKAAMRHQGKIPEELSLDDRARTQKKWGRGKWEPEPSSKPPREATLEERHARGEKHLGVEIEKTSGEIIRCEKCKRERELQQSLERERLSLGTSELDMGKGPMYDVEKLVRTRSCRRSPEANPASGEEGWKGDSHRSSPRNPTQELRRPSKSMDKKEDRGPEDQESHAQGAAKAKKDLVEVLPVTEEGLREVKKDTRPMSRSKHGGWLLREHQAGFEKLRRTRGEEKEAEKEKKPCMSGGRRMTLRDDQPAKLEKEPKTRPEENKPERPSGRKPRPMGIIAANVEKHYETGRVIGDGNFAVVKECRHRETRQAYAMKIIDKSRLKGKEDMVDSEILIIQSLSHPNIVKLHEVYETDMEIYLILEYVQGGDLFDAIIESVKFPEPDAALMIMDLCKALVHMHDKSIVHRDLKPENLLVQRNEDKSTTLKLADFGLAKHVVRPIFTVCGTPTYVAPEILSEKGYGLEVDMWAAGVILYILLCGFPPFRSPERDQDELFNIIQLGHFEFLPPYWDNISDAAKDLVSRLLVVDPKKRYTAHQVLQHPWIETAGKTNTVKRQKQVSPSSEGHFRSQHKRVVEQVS
Chain of Serine/threonine-protein kinase PLK3 (Homo sapiens) (Q9H4B4 whole entry, looked up): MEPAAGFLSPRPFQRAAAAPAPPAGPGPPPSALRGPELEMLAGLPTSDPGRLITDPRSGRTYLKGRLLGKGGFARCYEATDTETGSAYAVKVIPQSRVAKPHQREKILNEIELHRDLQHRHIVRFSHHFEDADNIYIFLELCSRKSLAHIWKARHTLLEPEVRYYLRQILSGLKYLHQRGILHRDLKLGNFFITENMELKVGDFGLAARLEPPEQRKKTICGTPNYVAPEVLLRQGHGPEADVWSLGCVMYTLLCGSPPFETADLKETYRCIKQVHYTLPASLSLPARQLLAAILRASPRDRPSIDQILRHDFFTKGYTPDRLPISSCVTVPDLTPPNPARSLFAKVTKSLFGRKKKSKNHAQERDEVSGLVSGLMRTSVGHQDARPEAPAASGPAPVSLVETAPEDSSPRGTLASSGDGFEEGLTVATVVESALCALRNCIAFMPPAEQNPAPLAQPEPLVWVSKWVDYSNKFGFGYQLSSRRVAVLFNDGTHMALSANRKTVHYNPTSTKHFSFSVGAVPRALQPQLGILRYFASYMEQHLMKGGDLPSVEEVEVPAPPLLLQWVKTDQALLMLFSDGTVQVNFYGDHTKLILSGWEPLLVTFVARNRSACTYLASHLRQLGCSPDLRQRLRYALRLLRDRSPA
Chain of Serine/threonine-protein kinase Chk1 (Homo sapiens) (O14757 whole entry): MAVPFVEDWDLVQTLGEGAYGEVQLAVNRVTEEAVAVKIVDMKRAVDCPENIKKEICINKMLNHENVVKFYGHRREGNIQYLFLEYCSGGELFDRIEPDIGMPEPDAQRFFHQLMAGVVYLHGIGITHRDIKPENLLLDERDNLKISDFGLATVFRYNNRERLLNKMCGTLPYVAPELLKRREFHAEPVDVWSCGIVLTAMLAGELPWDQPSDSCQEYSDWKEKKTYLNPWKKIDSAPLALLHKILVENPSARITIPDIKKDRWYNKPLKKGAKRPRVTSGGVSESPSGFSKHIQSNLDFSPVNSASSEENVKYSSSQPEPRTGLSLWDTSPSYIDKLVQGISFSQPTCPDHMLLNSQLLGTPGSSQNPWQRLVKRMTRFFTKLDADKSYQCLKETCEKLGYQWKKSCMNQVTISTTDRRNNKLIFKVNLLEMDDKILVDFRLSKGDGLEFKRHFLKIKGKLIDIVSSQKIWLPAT
Chain of Megakaryocyte-associated tyrosine-protein kinase (Homo sapiens) (P42679 whole entry): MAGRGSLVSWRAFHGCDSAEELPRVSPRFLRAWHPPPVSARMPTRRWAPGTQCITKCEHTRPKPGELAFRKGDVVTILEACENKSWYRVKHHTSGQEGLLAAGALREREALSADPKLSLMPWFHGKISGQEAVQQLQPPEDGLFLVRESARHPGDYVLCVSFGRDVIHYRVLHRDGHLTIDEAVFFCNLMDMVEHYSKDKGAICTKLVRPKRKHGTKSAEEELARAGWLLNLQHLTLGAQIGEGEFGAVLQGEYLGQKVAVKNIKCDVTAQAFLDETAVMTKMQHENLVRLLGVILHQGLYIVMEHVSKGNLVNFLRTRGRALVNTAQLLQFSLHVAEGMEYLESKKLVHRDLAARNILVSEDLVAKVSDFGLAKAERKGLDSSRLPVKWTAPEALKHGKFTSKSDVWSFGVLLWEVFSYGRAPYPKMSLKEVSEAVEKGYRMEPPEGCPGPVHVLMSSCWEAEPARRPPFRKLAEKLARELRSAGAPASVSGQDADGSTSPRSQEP

CN(C)c1ncnc(-c2ccc3nc(Nc4cc(CN5CCN(C(=O)CC(F)(F)F)CC5)ccn4)[nH]c3c2)c1Cl [BAY-440]
residual activity [1, 46]: 29% | residual activity [2, 46]: 26% | residual activity [3, 46]: 82% | residual activity [4, 46]: 59% | residual activity [5, 46]: 61% | residual activity [6, 46]: 100% | residual activity [7, 46]: 100% | residual activity [8, 46]: 90% | residual activity [9, 46]: 75% | residual activity [10, 46]: 100% | residual activity [11, 46]: 97% | residual activity [12, 46]: 100% | residual activity [13, 46]: 90% | residual activity [14, 46]: 76% | residual activity [15, 46]: 69% | residual activity [16, 46]: 92% | residual activity [17, 46]: 64% | residual activity [18, 46]: 100% | residual activity [19, 46]: 100% | residual activity [20, 46]: 100% | residual activity [21, 46]: 69% | residual activity [22, 46]: 62% | residual activity [23, 46]: 100% | residual activity [24, 46]: 80% | residual activity [25, 46]: 69% | residual activity [26, 46]: 95% | residual activity [27, 46]: 71% | residual activity [28, 46]: 100% | residual activity [29, 46]: 100% | residual activity [30, 46]: 100% | residual activity [31, 46]: 90% | residual activity [32, 46]: 98% | residual activity [33, 46]: 62% | residual activity [34, 46]: 61% | residual activity [35, 46]: 88% | residual activity [36, 46]: 100% | residual activity [37, 46]: 100% | residual activity [38, 46]: 100% | residual activity [39, 46]: 100% | residual activity [40, 46]: 40% | residual activity [41, 46]: 100% | residual activity [42, 46]: 73% | residual activity [43, 46]: 100% | inhibition [44]: 30.1% | inhibition [45]: 15.7%

C[C@H](c1ccnc(Nc2nc3ccc(-c4cc(N(C)C)ncn4)cc3[nH]2)c1)N1CCN(C(=O)CC(F)(F)F)CC1 [BAY-985]
residual activity [1, 47]: 100% | residual activity [2, 47]: 89% | residual activity [3, 47]: 79% | residual activity [4, 47]: 86% | residual activity [5, 47]: 100% | residual activity [6, 47]: 95% | residual activity [7, 47]: 92% | residual activity [8, 47]: 70% | residual activity [9, 47]: 93% | residual activity [10, 47]: 100% | residual activity [11, 47]: 87% | residual activity [12, 47]: 78% | residual activity [13, 47]: 65% | residual activity [14, 47]: 100% | residual activity [15, 47]: 95% | residual activity [16, 47]: 100% | residual activity [17, 47]: 100% | residual activity [18, 47]: 96% | residual activity [19, 47]: 93% | residual activity [20, 47]: 100% | residual activity [21, 47]: 100% | residual activity [22, 47]: 86% | residual activity [23, 47]: 100% | residual activity [24, 47]: 91% | residual activity [25, 47]: 95% | residual activity [26, 47]: 100% | residual activity [27, 47]: 83% | residual activity [28, 47]: 100% | residual activity [29, 47]: 100% | residual activity [30, 47]: 100% | residual activity [31, 47]: 100% | residual activity [32, 47]: 80% | residual activity [33, 47]: 100% | residual activity [34, 47]: 100% | residual activity [35, 47]: 100% | residual activity [36, 47]: 91% | residual activity [37, 47]: 100% | residual activity [38, 47]: 96% | residual activity [39, 47]: 100% | residual activity [40, 47]: 94% | residual activity [41, 47]: 100% | residual activity [42, 47]: 94% | residual activity [43, 47]: 85% | inhibition [44]: 35.5% | inhibition [45]: 24.2%
